Laboratory results taken from ChEMBL document CHEMBL5247642, “Structural Optimization of Fibroblast Growth Factor Receptor Inhibitors for Treating Solid Tumors” (J Med Chem, 2023).
In brackets after ≈: the same amount, converted by molar mass. Activity calls are given as the source filed them. The rule behind the calls is not given here.

Tests used:
[1] = biological target: T1, Fibroblast growth factor receptor 1 (Homo sapiens, UniProt P11362); test: Inhibition of FGFR1 (unknown origin) using Poly (Glu,Tyr) 4:1 as substrate incubated for 60 mins in presence of ATP by ELISA analysis
Target sequence in this assay (P11362 whole entry): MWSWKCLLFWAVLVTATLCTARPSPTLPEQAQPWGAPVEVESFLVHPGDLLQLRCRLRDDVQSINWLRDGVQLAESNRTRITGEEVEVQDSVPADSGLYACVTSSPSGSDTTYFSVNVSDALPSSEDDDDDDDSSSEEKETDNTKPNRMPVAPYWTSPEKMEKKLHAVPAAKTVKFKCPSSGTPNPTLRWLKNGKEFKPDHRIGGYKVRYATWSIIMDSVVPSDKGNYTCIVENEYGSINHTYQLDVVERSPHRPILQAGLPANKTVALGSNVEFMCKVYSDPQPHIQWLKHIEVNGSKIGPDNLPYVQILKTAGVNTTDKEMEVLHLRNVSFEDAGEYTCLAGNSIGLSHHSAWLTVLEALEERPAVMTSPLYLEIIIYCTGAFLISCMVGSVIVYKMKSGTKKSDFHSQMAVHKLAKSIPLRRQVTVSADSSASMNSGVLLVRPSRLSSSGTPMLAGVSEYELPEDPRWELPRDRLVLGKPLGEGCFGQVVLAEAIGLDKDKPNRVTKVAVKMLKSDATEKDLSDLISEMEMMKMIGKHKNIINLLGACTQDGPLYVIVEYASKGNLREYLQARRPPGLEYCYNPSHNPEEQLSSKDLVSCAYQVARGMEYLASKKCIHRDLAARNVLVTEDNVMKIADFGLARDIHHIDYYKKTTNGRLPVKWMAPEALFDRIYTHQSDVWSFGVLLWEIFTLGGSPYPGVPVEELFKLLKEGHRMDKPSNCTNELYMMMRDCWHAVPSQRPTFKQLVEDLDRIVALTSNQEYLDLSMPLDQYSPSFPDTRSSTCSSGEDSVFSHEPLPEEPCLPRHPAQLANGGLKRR

[2] = test system: SNU-16; test: Antiproliferative activity against human SNU-16 cells assessed as reduction in cell viability measured for 72 hrs; type: functional, cell-based; conditions: SNU-16, 72 h
[3] = Solubility of compound in PBS at pH 7.4 at 1 to 100 microg/ml by laser nephelometry analysis; type: physicochemical; conditions: dose 1-100 µg/ml
[4] = test system: NCI-H1581; test: Antiproliferative activity against human NCI-H1581 cells expressing FGFR1 assessed as reduction in cell viability measured after 72 hrs; type: functional, cell-based; conditions: NCI-H1581, 72 h
[5] = test system: NCI-H716; test: Antiproliferative activity against human NCI-H716 cells expressing FGFR2 assessed as reduction in cell viability measured after 72 hrs; type: functional, cell-based; conditions: NCI-H716, 72 h
[6] = biological target: T1, Fibroblast growth factor receptor 1; conditions: dose 100.0 nM, time 60.0 min
Target sequence in this assay (P11362 22-822 limits assumed): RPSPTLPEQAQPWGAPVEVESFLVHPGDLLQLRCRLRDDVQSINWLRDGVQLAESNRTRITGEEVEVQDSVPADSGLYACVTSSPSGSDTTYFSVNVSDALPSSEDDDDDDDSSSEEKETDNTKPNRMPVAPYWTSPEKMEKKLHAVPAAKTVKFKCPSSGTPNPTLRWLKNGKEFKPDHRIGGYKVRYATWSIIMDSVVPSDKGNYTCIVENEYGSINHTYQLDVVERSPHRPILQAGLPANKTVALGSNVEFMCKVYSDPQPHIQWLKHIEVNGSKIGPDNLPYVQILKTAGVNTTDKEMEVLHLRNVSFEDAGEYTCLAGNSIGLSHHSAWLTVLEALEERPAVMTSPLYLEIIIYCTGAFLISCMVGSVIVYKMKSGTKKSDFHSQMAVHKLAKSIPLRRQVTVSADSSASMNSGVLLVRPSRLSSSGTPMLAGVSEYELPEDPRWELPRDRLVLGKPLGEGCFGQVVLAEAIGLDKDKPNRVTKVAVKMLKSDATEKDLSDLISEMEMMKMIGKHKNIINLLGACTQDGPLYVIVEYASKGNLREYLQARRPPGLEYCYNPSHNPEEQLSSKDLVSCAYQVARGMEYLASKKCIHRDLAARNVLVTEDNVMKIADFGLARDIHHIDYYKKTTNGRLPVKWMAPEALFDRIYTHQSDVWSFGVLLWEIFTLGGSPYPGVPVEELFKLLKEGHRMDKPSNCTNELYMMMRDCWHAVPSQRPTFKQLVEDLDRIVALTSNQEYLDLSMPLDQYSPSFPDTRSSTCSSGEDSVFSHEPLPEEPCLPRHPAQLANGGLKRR

[7] = biological target: T1, Fibroblast growth factor receptor 1; conditions: dose 10.0 nM, time 60.0 min
Target sequence in this assay (P11362 22-822 limits assumed): as above

[8] = biological target: T1, Fibroblast growth factor receptor 1; conditions: dose 1.0 nM, time 60.0 min
Target sequence in this assay (P11362 22-822 limits assumed): as above

[9] = Solubility of compound in PBS at pH 7.4; type: physicochemical
[10] = Stability in rat whole blood assessed as parent compound remaining measured upto 5 hrs by LC-MS/MS analysis; type: ADME, tissue-based
[11] = GSH reactivity in PBS buffer assessed as percentage peak area ratio incubated for 24 hrs by LC-MS/MS analysis; type: physicochemical
[12] = biological target: Fibroblast growth factor receptor 2 (Homo sapiens, UniProt P21802); test: Inhibition of FGFR2 (unknown origin) using Poly (Glu,Tyr) 4:1 as substrate incubated for 60 mins in presence of ATP by ELISA analysis
Fibroblast growth factor receptor 2, sequence (P21802 whole entry): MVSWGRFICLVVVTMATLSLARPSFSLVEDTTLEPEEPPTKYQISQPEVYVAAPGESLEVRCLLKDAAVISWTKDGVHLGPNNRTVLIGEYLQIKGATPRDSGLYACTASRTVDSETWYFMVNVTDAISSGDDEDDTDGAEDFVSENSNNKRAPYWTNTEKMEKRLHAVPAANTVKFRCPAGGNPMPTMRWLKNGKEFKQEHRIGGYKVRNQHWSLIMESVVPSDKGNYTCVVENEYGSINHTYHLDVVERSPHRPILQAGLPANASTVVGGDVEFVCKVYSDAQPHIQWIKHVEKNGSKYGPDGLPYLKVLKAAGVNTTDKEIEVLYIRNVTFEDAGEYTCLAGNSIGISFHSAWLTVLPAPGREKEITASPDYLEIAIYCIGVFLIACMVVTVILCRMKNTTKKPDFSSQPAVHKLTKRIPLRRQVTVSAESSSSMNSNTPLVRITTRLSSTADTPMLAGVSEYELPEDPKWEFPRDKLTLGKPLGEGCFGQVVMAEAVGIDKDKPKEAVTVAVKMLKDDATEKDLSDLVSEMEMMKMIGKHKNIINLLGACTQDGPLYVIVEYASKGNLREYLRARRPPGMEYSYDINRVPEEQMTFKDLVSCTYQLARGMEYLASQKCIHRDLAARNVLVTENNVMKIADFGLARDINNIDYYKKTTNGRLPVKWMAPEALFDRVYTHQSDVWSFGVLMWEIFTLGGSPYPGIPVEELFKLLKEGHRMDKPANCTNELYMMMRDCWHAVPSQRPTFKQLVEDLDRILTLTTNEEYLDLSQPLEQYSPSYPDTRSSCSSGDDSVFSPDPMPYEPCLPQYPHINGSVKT

[13] = biological target: Fibroblast growth factor receptor 3 (Homo sapiens, UniProt P22607); test: Inhibition of FGFR3 (unknown origin) using Poly (Glu,Tyr) 4:1 as substrate incubated for 60 mins in presence of ATP by ELISA analysis
[14] = biological target: Fibroblast growth factor receptor 4 (Homo sapiens, UniProt P22455); test: Inhibition of FGFR4 (unknown origin) using Poly (Glu,Tyr) 4:1 as substrate incubated for 60 mins in presence of ATP by ELISA analysis
Fibroblast growth factor receptor 4, sequence (P22455 whole entry): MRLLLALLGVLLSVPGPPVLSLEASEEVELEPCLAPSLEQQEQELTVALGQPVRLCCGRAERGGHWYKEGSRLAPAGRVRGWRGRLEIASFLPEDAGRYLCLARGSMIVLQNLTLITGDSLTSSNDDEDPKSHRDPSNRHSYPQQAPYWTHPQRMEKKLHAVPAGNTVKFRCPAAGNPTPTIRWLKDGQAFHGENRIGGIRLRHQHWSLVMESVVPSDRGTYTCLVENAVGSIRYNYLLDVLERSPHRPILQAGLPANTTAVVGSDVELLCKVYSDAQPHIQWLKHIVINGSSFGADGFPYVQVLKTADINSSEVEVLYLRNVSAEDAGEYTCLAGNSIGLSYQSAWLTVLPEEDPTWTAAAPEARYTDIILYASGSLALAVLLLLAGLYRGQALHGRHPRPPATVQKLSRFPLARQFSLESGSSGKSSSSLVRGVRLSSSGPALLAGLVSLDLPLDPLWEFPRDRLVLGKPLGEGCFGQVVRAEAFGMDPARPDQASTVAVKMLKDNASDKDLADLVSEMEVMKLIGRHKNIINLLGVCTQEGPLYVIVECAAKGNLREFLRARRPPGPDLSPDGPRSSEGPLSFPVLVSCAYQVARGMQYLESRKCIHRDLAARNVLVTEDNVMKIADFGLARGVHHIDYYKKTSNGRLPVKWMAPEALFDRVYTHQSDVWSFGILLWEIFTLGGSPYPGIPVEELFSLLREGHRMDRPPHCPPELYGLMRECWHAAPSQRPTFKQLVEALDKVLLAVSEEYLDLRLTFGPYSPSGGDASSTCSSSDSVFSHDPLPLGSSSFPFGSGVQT

[15] = Stability in rat whole blood assessed as parent compound remaining measured after 2 hrs by LC-MS/MS analysis; type: ADME, tissue-based; conditions: read-out: Stability
[16] = biological target: Fibroblast growth factor receptor (Homo sapiens) (UniProt P22607+P11362+P22455+P21802); test: Inhibition of FGFR signalling in human SNU-16 assessed as inhibition of pErk phosphorylation at 0.1 nM incubated for 2 hrs by Western blot analysis; type: cell-based
[17] = biological target: Voltage-gated inwardly rectifying potassium channel KCNH2 (Homo sapiens, UniProt Q12809); test: Inhibition of hERG expressed in CHO cells at -80 mV holding potential by automated patch clamp method; type: toxicity, cell-based
Voltage-gated inwardly rectifying potassium channel KCNH2, sequence (Q12809 whole entry): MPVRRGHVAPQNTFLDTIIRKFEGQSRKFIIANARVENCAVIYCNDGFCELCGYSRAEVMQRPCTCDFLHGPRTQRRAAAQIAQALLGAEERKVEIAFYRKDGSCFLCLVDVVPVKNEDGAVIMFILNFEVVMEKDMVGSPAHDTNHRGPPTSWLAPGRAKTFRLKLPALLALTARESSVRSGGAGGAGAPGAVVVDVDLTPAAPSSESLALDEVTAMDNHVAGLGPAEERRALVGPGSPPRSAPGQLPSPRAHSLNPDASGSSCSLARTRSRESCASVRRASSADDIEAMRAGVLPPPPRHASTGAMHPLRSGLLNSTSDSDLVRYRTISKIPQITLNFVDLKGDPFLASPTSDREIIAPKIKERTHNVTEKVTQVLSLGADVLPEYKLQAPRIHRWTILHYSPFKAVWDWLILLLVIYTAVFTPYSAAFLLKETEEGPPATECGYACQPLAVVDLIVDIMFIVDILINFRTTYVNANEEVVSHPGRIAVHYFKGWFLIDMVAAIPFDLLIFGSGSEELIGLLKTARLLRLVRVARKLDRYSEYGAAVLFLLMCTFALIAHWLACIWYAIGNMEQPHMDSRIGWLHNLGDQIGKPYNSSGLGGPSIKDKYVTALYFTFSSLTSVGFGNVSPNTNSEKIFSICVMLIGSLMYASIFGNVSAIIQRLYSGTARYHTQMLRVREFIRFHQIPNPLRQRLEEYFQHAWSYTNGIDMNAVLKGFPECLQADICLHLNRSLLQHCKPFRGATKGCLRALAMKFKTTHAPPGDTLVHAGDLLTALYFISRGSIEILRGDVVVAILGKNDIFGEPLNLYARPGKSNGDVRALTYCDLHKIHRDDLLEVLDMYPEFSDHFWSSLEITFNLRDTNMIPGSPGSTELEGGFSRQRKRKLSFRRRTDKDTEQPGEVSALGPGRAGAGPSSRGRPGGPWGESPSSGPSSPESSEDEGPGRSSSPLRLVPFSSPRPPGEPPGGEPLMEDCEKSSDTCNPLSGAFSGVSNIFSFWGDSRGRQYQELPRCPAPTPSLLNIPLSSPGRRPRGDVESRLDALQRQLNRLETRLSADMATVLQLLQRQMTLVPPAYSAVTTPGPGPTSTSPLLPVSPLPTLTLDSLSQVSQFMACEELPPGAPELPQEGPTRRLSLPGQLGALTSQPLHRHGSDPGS

Row | Compound | IC50 [1] [nM] | IC50 [2] [nM] | solubility kinetic [3] [µg/mL] | inhibition [6] [%] | other results
1 | CCC#CC(=O)N1CCC(n2nc3c(=O)[nH]nc(N)c3c2-c2oc3ccc(C)cc3c2C)CC1 | 7.71 | < 0.3 | 1 (≈ 2.18 µM) | – | –
2 | C=CC(=O)N1CCCC(n2nc3c(=O)[nH]nc(N)c3c2-c2oc3cc(OC)ccc3c2C)C1 (racemic) | – | – | – | 11 | –
3 | C=CC(=O)N1CCC(n2nc3c(=O)[nH]nc(N)c3c2-c2oc3ccc(F)cc3c2C)CC1 | – | – | – | 20 | –
4 | C=CC(=O)N1CCC[C@@H](n2nc(-c3ccc(Oc4ccccc4)cc3)c3c(N)ncnc32)C1 [IBRUTINIB] | – | – | 10 (≈ 22.7 µM) | – | –
5 | C=CC(=O)N1CCCC(n2nc3c(=O)[nH]nc(N)c3c2-c2oc3cccc(OC)c3c2C)C1 (racemic) | – | – | – | 32 | –
6 | C=CC(=O)N1CCC(n2nc3c(=O)[nH]nc(N)c3c2-c2oc3cc(OC)cc(OC)c3c2C)CC1 | 84.4 | – | – | 44 | –
7 | C/C=C/C(=O)N1CCCC(n2nc3c(=O)[nH]nc(N)c3c2-c2oc3ccc(C)cc3c2C)C1 (racemic) | 67.7 | – | – | – | –
8 | CN(C)C/C=C/C(=O)Nc1cc2c(Nc3ccc(F)c(Cl)c3)ncnc2cc1O[C@H]1CCOC1 [AFATINIB] | – | – | 50 (≈ 103 µM) | – | –
9 | Cc1ccc2oc(-c3c4c(N)n[nH]c(=O)c4nn3C3CCCN(C(=O)/C=C/CN(C)C)C3)c(C)c2c1 (racemic) | 117 | – | 10 (≈ 20.4 µM) | – | –
10 | C=CC(=O)N1CCC(n2nc3c(=O)[nH]nc(N)c3c2-c2oc3cc(OC)ccc3c2C)CC1 | 101 | 8.9 | – | – | –
11 | C=CC(=O)N1CCC(n2nc3c(=O)[nH]nc(N)c3c2-c2oc3cc(F)ccc3c2C)CC1 | 6.5 | 1.5 | 10 (≈ 22.9 µM) | – | –
12 | C=CC(=O)N1CCC(n2nc3c(=O)[nH]nc(N)c3c2-c2oc3ccc(Cl)cc3c2C)CC1 | 2 | 9 | – | – | –
13 | C/C=C(\C)C(=O)N1CCCC(n2nc3c(=O)[nH]nc(N)c3c2-c2oc3ccc(C)cc3c2C)C1 (racemic) | – | – | – | 37 | –
14 | C=CC(=O)N1CCCC(n2nc3c(=O)[nH]nc(N)c3c2-c2oc3ccc(Cl)cc3c2C)C1 (racemic) | 6.4 | < 0.3 | – | – | –
15 | C=CC(=O)N1CCC(Cn2nc3c(=O)[nH]nc(N)c3c2-c2oc3ccc(C)cc3c2C)CC1 | – | 2 | 10 (≈ 22.4 µM) | 61.6 | inhibition [7]: 48.3%; inhibition [8]: 29.5%
16 | C=CC(=O)N1CCC(n2nc3c(=O)[nH]nc(N)c3c2-c2oc3cc(C)ccc3c2C)CC1 | 2.3 | < 0.3 | 10 (≈ 23.1 µM) | – | –
17 | C=CC(=O)Nc1ccc(-n2nc3c(=O)[nH]nc(N)c3c2-c2oc3ccc(C)cc3c2C)cc1 | – | – | 1 (≈ 2.27 µM) | – | solubility [9]: 1 µg/mL (≈ 2.27 µM)
18 | CC#CC(=O)N1CCCC(n2nc3c(=O)[nH]nc(N)c3c2-c2oc3ccc(C)cc3c2C)C1 (racemic) | 27.3 | 35.2 | – | – | –
19 | CCC#CC(=O)N1CCCC(n2nc3c(=O)[nH]nc(N)c3c2-c2oc3ccc(C)cc3c2C)C1 (racemic) | 25.4 | 36.4 | – | – | –
20 | C#CC(=O)N1CCC(n2nc3c(=O)[nH]nc(N)c3c2-c2oc3ccc(C)cc3c2C)CC1 | 0.9 | < 0.3 | 10 (≈ 23.2 µM) | – | Stability [10]: Unstable; Activity [11]: 0%
21 | C=CC(=O)N1CCCC(n2nc3c(=O)[nH]nc(N)c3c2-c2oc3cc(OC)cc(OC)c3c2C)C1 (racemic) | – | – | – | 40 | –
22 | Cc1ccc2oc(-c3c4c(N)n[nH]c(=O)c4nn3C3CCCN(C(=O)CC#N)C3)c(C)c2c1 (racemic) | – | – | – | 31 | –
23 | C#CC(=O)N1CCCC(n2nc3c(=O)[nH]nc(N)c3c2-c2oc3ccc(C)cc3c2C)C1 (racemic) | 3.9 | 15.8 | – | – | –
24 | C=CC(=O)N1CCC(n2nc3c(=O)[nH]nc(N)c3c2-c2oc3ccc(C)cc3c2C)CC1 | 8 | < 0.05 | 10 (≈ 23.1 µM) | 91.2 | IC50 [12]: 4.4 nM; IC50 [13]: 18.7 nM; IC50 [14]: 45.5 nM; Stability [10]: Stable; remaining at 2 h [15]: > 40%; Activity [11]: 84%; inhibition [16]: Active; IC50 [17]: 1130 nM; inhibition [7]: 78.2%; inhibition [8]: 14.2%

Second part, led by results:

Row | IC50 [1] [nM] | IC50 [2] [nM] | solubility kinetic [3] [µg/mL] | inhibition [6] [%] | Compound | other results
25 | – | – | 10 (≈ 22.2 µM) | – | C=C(F)C(=O)N1CCC(n2nc3c(=O)[nH]nc(N)c3c2-c2oc3ccc(C)cc3c2C)CC1 | –
26 | – | 3.7 | – | – | COc1cc(CCc2cc(NC(=O)c3ccc(N4C[C@@H](C)N[C@@H](C)C4)cc3)n[nH]2)cc(OC)c1 [FEXAGRATINIB] | IC50 [4]: 15.8 nM; IC50 [5]: 0.6 nM
27 | 2.2 | 16.6 | – | – | Cc1ccc2oc(-c3c4c(N)n[nH]c(=O)c4nn3C3CCN(C(=O)C#CCO)CC3)c(C)c2c1 | –
28 | – | – | – | 44 | C=CC(=O)N1CCC(n2nc3c(=O)[nH]nc(N)c3c2-c2oc3ccc(OC)cc3c2C)CC1 | –
29 | – | – | – | 27 | C=CC(=O)N1CCC(n2nc3c(=O)[nH]nc(N)c3c2-c2oc3ccc(C(F)(F)F)cc3c2C)CC1 | –
30 | – | 3.1 | – | 85.7 | C=CC(=O)N[C@H]1CC[C@H](n2nc3c(=O)[nH]nc(N)c3c2-c2oc3ccc(C)cc3c2C)CC1 | inhibition [7]: 47.4%; inhibition [8]: 32.4%
31 | 122 | – | – | – | CC/C=C/C(=O)N1CCCC(n2nc3c(=O)[nH]nc(N)c3c2-c2oc3ccc(C)cc3c2C)C1 (racemic) | –
32 | 6.7 | < 0.3 | 1 (≈ 2.25 µM) | – | CC#CC(=O)N1CCC(n2nc3c(=O)[nH]nc(N)c3c2-c2oc3ccc(C)cc3c2C)CC1 | Stability [10]: Stable; Activity [11]: 87%
33 | 111 | < 0.3 | – | – | C=CC(=O)N1CCC(n2nc3c(=O)[nH]nc(N)c3c2-c2oc3cccc(OC)c3c2C)CC1 | –
34 | – | – | – | 36 | C=C(C)C(=O)N1CCCC(n2nc3c(=O)[nH]nc(N)c3c2-c2oc3ccc(C)cc3c2C)C1 (racemic) | –
35 | 21.9 | 82.9 | – | – | Cc1ccc2oc(-c3c4c(N)n[nH]c(=O)c4nn3C3CCCN(C(=O)C#CCO)C3)c(C)c2c1 (racemic) | –
